Laboratory results: paper PMC8550792, “Evolution of kinase polypharmacology across HSP90 drug discovery” (Cell Chemical Biology, 2021)

What was measured:
Test in all cases: biochemical
Assay type in all cases: biochemical
382 unique human kinases [1] = molecular target: T1, 382 unique human kinases (Homo sapiens, UniProt P31749); conditions: kinase AKT1, compound 10 uM; for remaining activity at 10 µM: read-out: % Enzyme Activity (relative to DMSO controls)
T1 construct: purchased Reaction Biology (HotSpot contract assay)
T1 sequence (P31749 whole entry): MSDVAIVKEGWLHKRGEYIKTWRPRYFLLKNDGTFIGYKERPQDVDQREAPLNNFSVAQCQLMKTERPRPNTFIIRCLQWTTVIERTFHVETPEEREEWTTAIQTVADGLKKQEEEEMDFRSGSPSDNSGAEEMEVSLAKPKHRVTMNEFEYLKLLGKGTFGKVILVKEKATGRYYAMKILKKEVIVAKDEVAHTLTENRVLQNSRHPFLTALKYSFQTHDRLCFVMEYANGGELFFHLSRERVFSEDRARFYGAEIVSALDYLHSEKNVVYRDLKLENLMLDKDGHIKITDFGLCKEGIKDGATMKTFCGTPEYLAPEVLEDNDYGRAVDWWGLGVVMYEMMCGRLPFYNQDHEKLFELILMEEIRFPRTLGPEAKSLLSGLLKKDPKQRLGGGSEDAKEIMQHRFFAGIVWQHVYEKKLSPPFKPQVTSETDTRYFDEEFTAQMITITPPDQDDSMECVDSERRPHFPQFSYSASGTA

382 unique human kinases [2] = molecular target: T2, 382 unique human kinases (Homo sapiens, UniProt P42679); conditions: kinase CTK/MATK, compound 10 uM; for remaining activity at 10 µM: read-out: % Enzyme Activity (relative to DMSO controls)
T2 construct: purchased Reaction Biology (HotSpot contract assay)
T2 sequence (P42679 1-507): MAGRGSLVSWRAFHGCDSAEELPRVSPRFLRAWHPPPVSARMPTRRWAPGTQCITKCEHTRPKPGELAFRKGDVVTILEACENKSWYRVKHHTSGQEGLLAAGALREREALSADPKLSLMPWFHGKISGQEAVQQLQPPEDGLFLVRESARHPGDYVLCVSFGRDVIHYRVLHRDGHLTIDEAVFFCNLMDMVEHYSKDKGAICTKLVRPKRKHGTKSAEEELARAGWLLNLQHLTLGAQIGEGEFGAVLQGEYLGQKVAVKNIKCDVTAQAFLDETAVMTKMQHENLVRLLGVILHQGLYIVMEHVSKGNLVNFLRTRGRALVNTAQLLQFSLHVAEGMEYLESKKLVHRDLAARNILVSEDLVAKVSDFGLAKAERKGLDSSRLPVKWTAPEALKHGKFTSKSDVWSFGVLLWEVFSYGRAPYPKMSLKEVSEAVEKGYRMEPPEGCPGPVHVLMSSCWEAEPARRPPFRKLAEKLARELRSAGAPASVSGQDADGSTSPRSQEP

382 unique human kinases [3] = molecular target: T3, 382 unique human kinases (Homo sapiens, UniProt Q13873); conditions: BMPR2, 10 uM; for remaining activity at 10 µM: read-out: % Enzyme Activity (relative to DMSO controls)
T3 construct: purchased Reaction Biology (HotSpot contract assay)
T3 sequence (Q13873 27-1038): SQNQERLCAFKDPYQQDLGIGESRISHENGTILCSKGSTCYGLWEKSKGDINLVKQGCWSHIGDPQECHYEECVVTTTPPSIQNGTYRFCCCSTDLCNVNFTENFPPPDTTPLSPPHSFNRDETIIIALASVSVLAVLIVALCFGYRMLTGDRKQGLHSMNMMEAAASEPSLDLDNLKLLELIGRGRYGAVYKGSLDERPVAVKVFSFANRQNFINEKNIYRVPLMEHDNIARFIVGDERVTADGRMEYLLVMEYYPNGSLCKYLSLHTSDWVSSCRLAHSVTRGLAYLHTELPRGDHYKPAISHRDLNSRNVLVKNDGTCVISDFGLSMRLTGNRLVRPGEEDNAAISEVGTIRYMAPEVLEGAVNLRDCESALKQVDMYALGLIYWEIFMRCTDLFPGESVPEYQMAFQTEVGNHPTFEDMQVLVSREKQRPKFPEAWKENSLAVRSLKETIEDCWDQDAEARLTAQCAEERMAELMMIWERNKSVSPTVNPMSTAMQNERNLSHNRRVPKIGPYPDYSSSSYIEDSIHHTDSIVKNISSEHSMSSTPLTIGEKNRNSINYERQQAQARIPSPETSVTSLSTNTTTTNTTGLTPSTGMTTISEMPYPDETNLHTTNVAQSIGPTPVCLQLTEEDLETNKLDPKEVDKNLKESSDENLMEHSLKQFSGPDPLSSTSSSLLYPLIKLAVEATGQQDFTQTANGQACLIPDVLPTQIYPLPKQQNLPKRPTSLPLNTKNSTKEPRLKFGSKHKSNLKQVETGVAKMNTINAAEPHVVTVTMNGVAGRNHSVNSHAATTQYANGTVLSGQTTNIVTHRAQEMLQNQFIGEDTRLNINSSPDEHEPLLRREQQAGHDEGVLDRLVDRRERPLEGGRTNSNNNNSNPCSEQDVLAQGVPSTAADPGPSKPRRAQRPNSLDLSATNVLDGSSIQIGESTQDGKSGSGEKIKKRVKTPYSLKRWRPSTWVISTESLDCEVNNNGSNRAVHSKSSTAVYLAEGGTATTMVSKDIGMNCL

382 unique human kinases [4] = molecular target: T4, 382 unique human kinases (Homo sapiens, UniProt Q9H4A3); conditions: WNK1, 10 uM; for remaining activity at 10 µM: read-out: % Enzyme Activity (relative to DMSO controls)
T4 construct: purchased Reaction Biology (HotSpot contract assay)
T4 sequence (Q9H4A3 whole entry): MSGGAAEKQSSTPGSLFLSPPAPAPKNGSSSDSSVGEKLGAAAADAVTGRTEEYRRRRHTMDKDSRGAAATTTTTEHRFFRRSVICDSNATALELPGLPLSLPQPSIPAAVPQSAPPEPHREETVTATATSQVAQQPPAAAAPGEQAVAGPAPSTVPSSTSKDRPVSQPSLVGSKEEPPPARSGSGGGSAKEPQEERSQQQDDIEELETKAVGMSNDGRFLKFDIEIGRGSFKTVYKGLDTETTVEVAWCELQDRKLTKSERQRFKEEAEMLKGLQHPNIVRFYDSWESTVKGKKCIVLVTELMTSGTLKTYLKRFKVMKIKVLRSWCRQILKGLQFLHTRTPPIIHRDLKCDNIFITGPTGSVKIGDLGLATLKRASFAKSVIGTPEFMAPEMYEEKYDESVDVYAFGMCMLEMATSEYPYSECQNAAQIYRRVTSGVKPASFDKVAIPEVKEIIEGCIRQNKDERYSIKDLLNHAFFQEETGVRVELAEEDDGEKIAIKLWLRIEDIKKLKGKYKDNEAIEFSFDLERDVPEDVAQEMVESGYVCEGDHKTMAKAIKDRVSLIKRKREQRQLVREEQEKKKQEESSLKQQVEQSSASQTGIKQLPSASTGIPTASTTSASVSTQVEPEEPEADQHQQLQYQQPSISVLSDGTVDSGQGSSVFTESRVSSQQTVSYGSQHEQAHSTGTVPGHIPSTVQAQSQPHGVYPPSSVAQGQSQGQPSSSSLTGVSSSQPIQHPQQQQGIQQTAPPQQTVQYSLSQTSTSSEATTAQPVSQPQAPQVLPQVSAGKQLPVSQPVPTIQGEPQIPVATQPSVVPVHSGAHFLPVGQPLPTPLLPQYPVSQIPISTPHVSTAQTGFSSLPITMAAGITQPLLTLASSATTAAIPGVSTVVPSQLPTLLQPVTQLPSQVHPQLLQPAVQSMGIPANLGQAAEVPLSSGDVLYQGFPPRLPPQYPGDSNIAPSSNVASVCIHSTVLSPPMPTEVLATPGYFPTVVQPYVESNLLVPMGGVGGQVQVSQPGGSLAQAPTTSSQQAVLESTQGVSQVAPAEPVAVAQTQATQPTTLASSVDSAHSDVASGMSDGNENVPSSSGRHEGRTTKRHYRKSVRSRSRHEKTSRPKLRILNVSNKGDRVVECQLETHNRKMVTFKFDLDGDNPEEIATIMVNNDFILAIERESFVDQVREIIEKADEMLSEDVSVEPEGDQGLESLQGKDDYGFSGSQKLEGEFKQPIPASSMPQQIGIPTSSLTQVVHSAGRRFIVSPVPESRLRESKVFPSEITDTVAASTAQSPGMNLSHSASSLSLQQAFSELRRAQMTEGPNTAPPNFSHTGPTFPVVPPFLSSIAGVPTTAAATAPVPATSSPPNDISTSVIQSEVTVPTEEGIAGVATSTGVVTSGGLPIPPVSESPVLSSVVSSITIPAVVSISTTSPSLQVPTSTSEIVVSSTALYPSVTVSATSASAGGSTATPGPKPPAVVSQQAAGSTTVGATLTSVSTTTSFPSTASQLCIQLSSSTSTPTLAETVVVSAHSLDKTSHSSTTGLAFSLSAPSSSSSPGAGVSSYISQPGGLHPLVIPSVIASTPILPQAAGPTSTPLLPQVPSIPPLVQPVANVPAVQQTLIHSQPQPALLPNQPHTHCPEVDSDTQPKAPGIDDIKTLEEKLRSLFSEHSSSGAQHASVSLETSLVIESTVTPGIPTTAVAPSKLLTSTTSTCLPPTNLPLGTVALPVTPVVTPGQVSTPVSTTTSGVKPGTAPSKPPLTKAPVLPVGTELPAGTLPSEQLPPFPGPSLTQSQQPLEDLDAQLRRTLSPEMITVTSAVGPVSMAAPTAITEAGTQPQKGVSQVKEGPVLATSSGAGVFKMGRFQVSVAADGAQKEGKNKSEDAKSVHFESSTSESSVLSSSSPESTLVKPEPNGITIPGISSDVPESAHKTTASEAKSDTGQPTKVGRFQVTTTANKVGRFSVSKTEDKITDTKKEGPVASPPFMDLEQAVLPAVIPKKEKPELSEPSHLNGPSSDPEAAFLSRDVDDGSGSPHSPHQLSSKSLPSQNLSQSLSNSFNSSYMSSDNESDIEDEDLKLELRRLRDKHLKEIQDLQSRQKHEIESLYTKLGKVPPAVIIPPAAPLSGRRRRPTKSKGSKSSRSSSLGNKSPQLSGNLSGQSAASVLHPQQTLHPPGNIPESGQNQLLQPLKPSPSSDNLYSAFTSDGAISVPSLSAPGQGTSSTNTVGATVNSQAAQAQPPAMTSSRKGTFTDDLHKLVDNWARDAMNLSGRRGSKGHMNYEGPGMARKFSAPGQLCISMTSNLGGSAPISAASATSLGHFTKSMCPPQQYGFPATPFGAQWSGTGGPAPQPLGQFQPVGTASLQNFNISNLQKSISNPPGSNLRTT

382 unique human kinases [5] = molecular target: T5, 382 unique human kinases (Homo sapiens, UniProt P11309); conditions: PIM1, [ATP] 100 µM, compound 10 uM; for remaining activity at 10 µM: read-out: % Enzyme Activity (relative to DMSO controls)
T5 construct: purchased Reaction Biology (HotSpot contract assay)
T5 sequence (P11309 whole entry): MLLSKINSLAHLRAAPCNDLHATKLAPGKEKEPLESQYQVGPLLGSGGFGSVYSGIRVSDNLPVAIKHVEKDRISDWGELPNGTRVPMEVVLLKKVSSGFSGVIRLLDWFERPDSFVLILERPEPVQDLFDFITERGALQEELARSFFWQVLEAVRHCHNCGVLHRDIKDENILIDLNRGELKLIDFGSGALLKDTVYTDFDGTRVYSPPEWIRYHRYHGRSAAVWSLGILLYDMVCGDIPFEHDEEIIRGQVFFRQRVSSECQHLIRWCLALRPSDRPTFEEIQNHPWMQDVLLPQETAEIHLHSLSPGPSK

382 unique human kinases [6] = molecular target: T6, 382 unique human kinases (Homo sapiens, UniProt P15056); conditions: BRAF, 10 uM; for remaining activity at 10 µM: read-out: % Enzyme Activity (relative to DMSO controls)
T6 construct: purchased Reaction Biology (HotSpot contract assay)
T6 sequence (P15056 whole entry): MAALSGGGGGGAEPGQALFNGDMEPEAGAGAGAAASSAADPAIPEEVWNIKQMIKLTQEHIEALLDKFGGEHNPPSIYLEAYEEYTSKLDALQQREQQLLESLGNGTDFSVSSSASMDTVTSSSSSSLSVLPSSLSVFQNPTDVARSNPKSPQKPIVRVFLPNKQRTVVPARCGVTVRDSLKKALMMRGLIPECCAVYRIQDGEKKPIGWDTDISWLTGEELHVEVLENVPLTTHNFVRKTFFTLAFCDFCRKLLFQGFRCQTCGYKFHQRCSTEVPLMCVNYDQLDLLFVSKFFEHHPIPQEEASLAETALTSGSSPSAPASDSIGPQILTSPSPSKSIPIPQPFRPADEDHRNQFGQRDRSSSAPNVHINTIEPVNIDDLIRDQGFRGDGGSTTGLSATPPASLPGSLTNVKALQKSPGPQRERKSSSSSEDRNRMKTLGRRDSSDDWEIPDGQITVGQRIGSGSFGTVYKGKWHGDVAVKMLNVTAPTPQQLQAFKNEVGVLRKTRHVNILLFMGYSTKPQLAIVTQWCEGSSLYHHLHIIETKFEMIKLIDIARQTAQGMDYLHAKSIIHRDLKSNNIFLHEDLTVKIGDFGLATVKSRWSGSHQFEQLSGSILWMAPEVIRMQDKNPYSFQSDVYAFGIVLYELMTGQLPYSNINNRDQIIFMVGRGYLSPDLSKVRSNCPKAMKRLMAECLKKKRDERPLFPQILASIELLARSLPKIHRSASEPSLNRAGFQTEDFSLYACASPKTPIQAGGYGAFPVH

382 unique human kinases [7] = molecular target: T7, 382 unique human kinases (Homo sapiens, UniProt P57059); conditions: SIK1, [ATP] 30 µM
T7 construct: purchased Reaction Biology (HotSpot contract assay)

382 unique human kinases [8] = molecular target: T8, 382 unique human kinases (Homo sapiens, UniProt Q06418); conditions: TYRO3/SKY, 10 uM; for remaining activity at 10 µM: read-out: % Enzyme Activity (relative to DMSO controls)
T8 construct: purchased Reaction Biology (HotSpot contract assay)
T8 sequence (Q06418 41-890): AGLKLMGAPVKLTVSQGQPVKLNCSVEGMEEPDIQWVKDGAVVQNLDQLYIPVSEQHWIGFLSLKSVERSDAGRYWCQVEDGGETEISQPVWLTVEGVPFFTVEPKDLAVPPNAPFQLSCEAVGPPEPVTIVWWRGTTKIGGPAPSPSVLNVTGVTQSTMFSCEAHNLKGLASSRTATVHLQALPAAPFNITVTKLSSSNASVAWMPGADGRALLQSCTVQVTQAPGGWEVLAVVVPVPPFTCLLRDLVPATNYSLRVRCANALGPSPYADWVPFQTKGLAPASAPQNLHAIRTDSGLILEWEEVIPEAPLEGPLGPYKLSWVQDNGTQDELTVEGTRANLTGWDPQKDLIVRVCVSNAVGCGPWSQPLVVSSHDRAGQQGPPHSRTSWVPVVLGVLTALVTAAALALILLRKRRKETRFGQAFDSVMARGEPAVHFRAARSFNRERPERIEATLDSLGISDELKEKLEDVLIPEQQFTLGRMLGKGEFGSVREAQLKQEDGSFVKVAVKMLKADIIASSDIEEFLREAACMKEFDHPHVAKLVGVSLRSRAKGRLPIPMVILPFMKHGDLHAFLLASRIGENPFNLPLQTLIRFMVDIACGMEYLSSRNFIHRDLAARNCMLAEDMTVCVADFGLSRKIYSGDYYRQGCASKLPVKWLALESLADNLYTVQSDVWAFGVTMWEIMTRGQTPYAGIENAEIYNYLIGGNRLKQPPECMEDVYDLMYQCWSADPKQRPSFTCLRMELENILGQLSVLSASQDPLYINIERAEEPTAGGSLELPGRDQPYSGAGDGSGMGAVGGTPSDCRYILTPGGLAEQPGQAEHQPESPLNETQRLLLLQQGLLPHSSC

382 unique human kinases [9] = molecular target: T9, 382 unique human kinases (Homo sapiens, UniProt Q16513); conditions: PKN2/PRK2, 10 uM; for remaining activity at 10 µM: read-out: % Enzyme Activity (relative to DMSO controls)
T9 construct: purchased Reaction Biology (HotSpot contract assay)
T9 sequence (Q16513 whole entry): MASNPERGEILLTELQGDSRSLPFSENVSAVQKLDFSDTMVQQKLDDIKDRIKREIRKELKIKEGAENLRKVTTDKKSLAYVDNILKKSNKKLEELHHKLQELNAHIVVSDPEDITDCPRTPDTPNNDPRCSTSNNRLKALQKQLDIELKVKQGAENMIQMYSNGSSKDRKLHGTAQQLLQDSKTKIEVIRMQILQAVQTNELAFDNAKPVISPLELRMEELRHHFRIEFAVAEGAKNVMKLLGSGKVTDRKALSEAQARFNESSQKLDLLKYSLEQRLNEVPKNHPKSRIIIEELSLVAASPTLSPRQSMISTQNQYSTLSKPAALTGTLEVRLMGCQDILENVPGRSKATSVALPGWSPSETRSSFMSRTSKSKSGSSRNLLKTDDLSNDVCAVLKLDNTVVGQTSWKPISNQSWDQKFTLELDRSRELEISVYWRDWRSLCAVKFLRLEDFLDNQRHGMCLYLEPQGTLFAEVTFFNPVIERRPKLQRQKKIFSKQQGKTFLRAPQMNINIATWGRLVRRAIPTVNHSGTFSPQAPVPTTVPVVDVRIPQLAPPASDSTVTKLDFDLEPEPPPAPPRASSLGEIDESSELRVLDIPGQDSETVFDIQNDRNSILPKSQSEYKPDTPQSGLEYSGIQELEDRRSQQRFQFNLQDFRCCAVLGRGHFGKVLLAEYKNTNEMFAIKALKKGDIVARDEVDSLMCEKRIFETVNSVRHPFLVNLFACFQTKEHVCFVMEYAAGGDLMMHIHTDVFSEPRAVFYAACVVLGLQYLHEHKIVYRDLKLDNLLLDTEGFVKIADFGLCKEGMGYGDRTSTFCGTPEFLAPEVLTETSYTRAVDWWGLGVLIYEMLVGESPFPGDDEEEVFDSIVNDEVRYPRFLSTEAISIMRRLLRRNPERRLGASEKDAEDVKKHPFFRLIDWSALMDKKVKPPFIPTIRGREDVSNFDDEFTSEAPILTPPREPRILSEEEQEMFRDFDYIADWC

[10] = compound 10 uM, read-out: % Enzyme Activity (relative to DMSO controls)

`CC(C)c1cc(-c2n[nH]c(=O)n2-c2ccc3c(ccn3C)c2)c(O)cc1O` [Ganetespib (STA9090)] showed a remaining activity at 10 µM (382 unique human kinases [1]) of 84.4%, a remaining activity at 10 µM (382 unique human kinases [2]) of 80% and a remaining activity at 10 µM (382 unique human kinases [3]) of 65.3%. For the same molecule, the remaining activity at 10 µM (382 unique human kinases [4]) was 94.2%.
With `CCNC(=O)c1noc(-c2cc(C(C)C)c(O)cc2O)c1-c1ccc(CN2CCOCC2)cc1` [Luminespib] the “% Enzyme Activity (relative to DMSO controls)” value (382 unique human kinases [5]) was 94.76%, the remaining activity at 10 µM (382 unique human kinases [5]) was 97.2% and the “% Enzyme Activity (relative to DMSO controls)” value (382 unique human kinases [6]) was 103.97%. The remaining activity at 10 µM (382 unique human kinases [6]) was 105%, the “% Enzyme Activity (relative to DMSO controls)” value (382 unique human kinases [7]; compound 10 uM) was 79.13% and the remaining activity at 10 µM (382 unique human kinases [7]; [10]) was 80.3%. For the same molecule, the “% Enzyme Activity (relative to DMSO controls)” value (382 unique human kinases [8]) was 106.19%, the remaining activity at 10 µM (382 unique human kinases [8]) was 107% and the “% Enzyme Activity (relative to DMSO controls)” value (382 unique human kinases [9]) was 98.60%. The remaining activity at 10 µM (382 unique human kinases [9]) was 99.3%.
With `CCNC(=O)c1noc(-c2cc(C(C)C)c(O)cc2O)c1-c1ccc(CN2CCOCC2)cc1` [Luminespib (AUY-922)] the “% Enzyme Activity (relative to DMSO controls)” value (382 unique human kinases [1]) was 97.59%, the remaining activity at 10 µM (382 unique human kinases [1]) was 98.4% and the “% Enzyme Activity (relative to DMSO controls)” value (382 unique human kinases [2]) was 80.99%. For the same molecule, the remaining activity at 10 µM (382 unique human kinases [2]) was 83.5%, the “% Enzyme Activity (relative to DMSO controls)” value (382 unique human kinases [3]) was 104.76% and the remaining activity at 10 µM (382 unique human kinases [3]) was 108%. The “% Enzyme Activity (relative to DMSO controls)” value (382 unique human kinases [4]) was 68.64% and the remaining activity at 10 µM (382 unique human kinases [4]) was 70.4%.
With `CC(C)c1cc(-c2n[nH]c(=O)n2-c2ccc3c(ccn3C)c2)c(O)cc1O` [Ganetespib] the remaining activity at 10 µM (382 unique human kinases [5]) was 15.9%, the remaining activity at 10 µM (382 unique human kinases [6]) was 98.1% and the remaining activity at 1 µM (382 unique human kinases [7]; compound 1 uM, read-out: % Enzyme Activity (relative to DMSO controls)) was 75.9%. For the same molecule, the remaining activity at 10 µM (382 unique human kinases [7]; [10]) was 11.4%, the remaining activity at 10 µM (382 unique human kinases [8]) was 102% and the remaining activity at 10 µM (382 unique human kinases [9]) was 95.7%.
